Results taken from US20220175798A1, “COMPOSITIONS COMPRISING OXYGENATED CHOLESTEROL SULFATE AND AT LEAST ONE OF POLYALKYLENE GLYCOL, CARBOXYMETHYL CELLULOSE AND POLYOXYLGLYCERIDE” (Durect Corporation, priority 2016, published 2022).

What was measured:
[1] = Osmolality by vapor pressure osmometer; format: physicochemical
Protocol: Vapor Pressure Osmometer: Vapor® Vapor Pressure Osmometer, Model
Vehicle PEG 3350 (3% PEG 3350 plus 0.3% Tween 80 in 10 mM Phosphate at pH 7.4) with 0.71%, 0.77% and 0.80% NaCl were prepared and the osmolality was measured with a vapor pressure osmometer.
(§1) Weigh 87 mg of 25HC3S (Lot #C, Jet milled and then pass 20 mesh screen) into a 5-mL vial. Add to the vial 3 mL Vehicle PEG 3350 (without L-methionine and with 0.75% NaCl). […] Weigh another approximately and accurately 90 mg each of 25HC3S (Lot #D and Lot #B, micronized, one pass) into 3 separate 10 mL vials with 3 mL of Vehicle PEG 3350. The vials were placed in a flat bed shaker at 200 rpm for 45 minutes (Mixing Method 4). […] A second set of samples was prepared likewise from the same 3 vials except using 1 mL BD syringe attached to a 27G½″ needle. The homogeneity was determined (Study #19).

[2] = Ease of dispersion: appearance of suspension and sedimentation (visual inspection); format: physicochemical; conditions: 25 mg/mL in Vehicle PEG 3350 (without L-Methionine)
Protocol: Two lots of 25HC3S sodium salt (Lot #A and Lot #B) were used. Lot #B was delumped through a 20 mesh screen. The drug substance was either used directly or further jet-milled, prior to the preparation of suspensions for the studies. A third lot of 25HC3 S sodium salt (Lot #C) was jet-milled first and then used directly or further passed through a 20 mesh screen prior to the studies. More than 10 vehicles were screened. Four mixing methods were evaluated: manual shaking (Mixing Method 1), manual shaking followed by sonication (Mixing Method 2) and homogenization with a sonic probe (Mixing Method 3) as well as mechanical shaking horizontally in a flat bed shaker (Mixing Method 4). Studies #1 to 13 combined vehicle screening, mixing methods and syringeability evaluation. The effect of drug concentrations on the syringeability was evaluated (Studies #10 and 11).
Weigh approximately 10 to 100 mg each of 25HC3S into 2 mL vials. Add to each vial, 1 mL of vehicle. A total of 3 mixing methods were used to prepare the suspensions. Mixing Method 1: Each vial was manually shaken for 15 to 45 times. The suspension was inspected visually for sedimentation after stored at room temperature (RT) for one minute. […] Mixing Method 2: Each vial was manually shaken 30 times followed by sonication for 3 or 6 minutes for syringeability study. […]

[3] = test system: renal ischemia/reperfusion injury; experiment: Renal ischemia/reperfusion injury in rats; format: in vivo, Lewis rats; conditions: 50 mg/kg daily for 4 days oral gavage; Day 3; vs vehicle; not statistically significant
Protocol: The subjects for the study were 18 adult male Lewis rats (9-11 weeks of age; 225-250 g). […] All animals were in healthy condition and admitted to the study.
The Vehicle was a solution of 0.5% (w/v) CMC and 0.05% (v/v) Tween-80 in water. Powdered 25HC3 S was constituted into the vehicle solution to result in a drug concentration of 20 mg/mL. The suspensions were homogenized at 20,000 rotations per minute (rpm) for approximately 5 minutes after being combined, with 10 second breaks every 30-40 seconds and swirled before dosing to maintain homogeneity. The formulated test article was prepared weekly and kept at room temperature.
All rats were anesthetized with intraperitoneal injection of pentobarbital (40 mg/kg). Ischemia of the left kidney was achieved by transient occlusion of the left renal artery and vein, and ureter for 50 min with a vascular micro-clip. The skin was temporarily closed during the ischemia period and the rats were put on a heating pad maintained at a temperature of 37° C. At reperfusion, the right kidney was removed before permanently closing the abdomen with 4-0 silk suture Animals were treated with vehicle (N=6) or 25HC3S (N=12) daily for 4 days, starting on the day before the surgery, (pre-treatment, Day −1) and for 2 days after the surgery. […] Serum creatinine (sCr) levels and BUN levels were examined on Day −2 (baseline), Day 3, and/or Day 7 after the surgery.

[4] = Homogeneity and content uniformity of 25HC3S suspension by HPLC; format: physicochemical
Protocol: The HPLC technique involved reverse phase HPLC for measuring the concentration of 25HC3 S in the solubility samples.
Weigh 80 mg of 25HC3S (Lot #B, Passed through 20 mesh screen and Jet-milled, 3rd pass) into a 10 mL vial. Add to the vial, 8 mL of Vehicle PEG 3350 (with 0.15% L-Methionine and 0.9% NaCl). […] A total of 9 samples were dispensed using 1 mL BD syringes attached to 20G1″ or 25G⅝″ Terumo UTW needles for homogeneity analysis by HPLC (Study #14) and stability study (Study #17).
Weigh 50 and 80 mg of 25HC3S into 2 and 10 mL vials, respectively. Add to the vial, 2 mL and 8 mL of Vehicle PEG 3350 with L-Methionine. […] The vial was inverted 10 times prior to dispensing 0.2 or 0.9 mL into volumetric flasks for methanol dilution for HPLC analysis (total 8 and 7 samples, respectively for HPLC analysis for potency and stability (Study #15).
Weighed approximately 125 mg each of 25HC3S (Lot #C, jet milled and passed through a 20 mesh screen) into a 10 mL vial. Added to vial, 5 mL of Vehicle PEG 3350 without L-Methionine. The vial was placed horizontally in a flat bed shaker, shaken at 100 rpm for up 45 minutes (Mixing Method 4). There were some small wet lumps stuck to the wall and bottom of the glass vial.
as §1

Structure (SMILES): C[C@H](CCCC(C)(C)O)[C@H]1CC[C@H]2[C@@H]3CC=C4C[C@@H](OS(=O)(=O)[O-])CC[C@]4(C)[C@H]3CC[C@]12C.[Na+] [Formulation 25HC3S, 5-cholesten-3, 25-diol, 3-sulfate]
- osmolality ([1]; final improved formulation 25 mg/mL (Study #18)): 321 mmol/kg
- osmolality ([1]; suspension 25 mg/mL in Vehicle PEG 3350 without L-Methionine, 0.75% NaCl, average of 6 measurements): 321 mmol/kg
- dispersion ([2]; flat bed shaker 100 rpm up to 50 minutes (Study #12)): did not disperse well
- dispersion ([2]; flat bed shaker 200 rpm up to 45 minutes (Study #13)): dispersed well
- reduction of BUN levels [3]: 5%
- reduction of sCr levels [3]: ~20%
- homogeneity ([4]; 10 mg/mL in Vehicle PEG 3350 (with 0.15% L-Methionine), n=7, 0.9 mL each, Study #15): 100.5-103.1 % LS
- homogeneity ([4]; 10 mg/mL suspension in Vehicle PEG 3350 (0.15% L-Methionine, 0.9% NaCl), Lot #B jet-milled 3rd pass, n=9, Study #14): 94.3-98.1 % LS
- homogeneity ([4]; 25 mg/mL in Vehicle PEG 3350 (with 0.15% L-Methionine), n=8, 0.2 mL each, Study #15): 96.2-109.4 % LS
- homogeneity (and content uniformity) ([4]; final improved formulation 25 mg/mL (Study #19)): 89.3-105.9 % label strength
